Assay results taken from patent publication US11058680B2, “Combinations of opioid/TLR4 antagonists and acetaminophen for use in the treatment of emotional pain and insomnia” (Allodynic Threapeutics, LLC, priority 2016, dated 2021).

System: migraine attacks
Assay: Naltrexone/acetaminophen open-label pilot study, acute treatment of migraine: headache pain (4-point scale; relief score ≤1, pain-free score = 0), associated symptoms, additional meds
Assay type: in vivo, human
Method: Sixteen unique patients were enrolled in an open phase pilot study for the acute treatment of migraine attacks, insomnia, and emotional pain. Of the sixteen patients, eleven were evaluated for one migraine attack, one for two attacks, two for four attacks, one for six attacks, and one for fourteen attacks. A total of forty-one […] treatments were evaluated. Patients received a single dose of one of the following treatment options:
The majority of the patients remained in the clinic for observation for 2 hours after dosing. They completed headache diary assessments immediately before and after dosing at time points: 7, 15, and 30 minutes; and 1, 1.5, 2, 3, 6, 12, 24, and 48 hours. Headache pain was assessed on a 4-point scale (0=none; 1=mild; 2=moderate; 3=severe). The assessment of photophobia, phonophobia, nausea, and neck/shoulder pain was assessed as present or absent. The assessment of emotional pain was recorded on a 4-point scale (0=none, 1=mild, 2=moderate, 3=severe). The assessment of difficulty sleeping or falling asleep (insomnia) was assessed on a 4-point scale (0=none, 1=mild, 2=moderate, 3=severe) at baseline, for the night before treatment and for the following nights at 24, and 48 hours. Patients recorded side effects severity at each time point. Patients recorded the time of the first rescue medication dose and all additional headache medications used within 48 hours. Patients were required to stay awake to record their assessments in the first 2 hours, sleeping was permitted thereafter. While asleep, assessments were completed according to patients' best estimation. For data analysis, it was assumed that a migraine attack is a unique patient. Patients were asked to specify (yes or no answer) to whether they experienced emotional pain symptoms such as: hurt feelings, sadness, fear, or anger. Patients who replied positively to having emotional pain were asked to specify the cause into one of the following options: relationship, work/school, money/debt, health, or loss/grief.

[1] = 7 min, NTX/APAP 2.25 mg/325 mg, NTX 2.25 mg
[2] = 7 min, NTX/APAP 3.25 mg/325 mg, NTX 3.25 mg
[3] = 7 min, NTX/APAP 5 mg/325 mg, NTX 5 mg
[4] = 7 min, naltrexone/acetaminophen 2.25 mg/325 mg (N=15), naltrexone 2.25 mg (N=3)
[5] = 15 min, NTX/APAP 2.25 mg/325 mg, NTX 2.25 mg
[6] = 15 min, NTX/APAP 3.25 mg/325 mg, NTX 3.25 mg
[7] = 15 min, NTX/APAP 5 mg/325 mg, NTX 5 mg
[8] = 15 min, NTX/APAP […]325 mg, NTX 1.5 mg
[9] = 15 min, naltrexone/acetaminophen 2.25 mg/325 mg (N=21), naltrexone 2.25 mg (N=9)
[10] = 30 min, NTX/APAP 2.25 mg/325 mg, NTX 2.25 mg
[11] = 30 min, NTX/APAP 3.25 mg/325 mg, NTX 3.25 mg
[12] = 30 min, NTX/APAP 5 mg/325 mg, NTX 5 mg
[13] = 30 min, NTX/APAP […]325 mg, NTX 1.5 mg
[14] = 30 min, naltrexone/acetaminophen 2.25 mg/325 mg (N=21), naltrexone 2.25 mg (N=9)
[15] = 1 h, NTX/APAP 2.25 mg/325 mg, NTX 2.25 mg
[16] = 1 h, NTX/APAP 3.25 mg/325 mg, NTX 3.25 mg

O=C1CC[C@@]2(O)[C@H]3Cc4ccc(O)c5c4[C@@]2(CCN3CC2CC2)[C@H]1O5 [naltrexone]
Additional meds taken [1]: 0 (0)
Headache pain-free [1]: 0 (0) n (%)
Headache pain-relief [1]: 0 (0) n (%)
Most bothersome symptom free [1]: 0 (0) n (%)
Nausea-free [1]: 0 (0) n (%)
Neck/shoulder pain-free [1]: 2 (67) n (%)
Phonophobia-free [1]: 2 (67) n (%)
Photophobia-free [1]: 0 (0) n (%)
Additional meds taken [2]: 0
Headache pain-free [2]: 0 n (%)
Headache pain-relief [2]: 0 n (%)
Most bothersome symptom free [2]: 0 n (%)
Nausea-free [2]: 2 n (%)
Neck/shoulder pain-free [2]: 0 n (%)
Phonophobia-free [2]: 0 n (%)
Photophobia-free [2]: 1 n (%)
Additional meds taken [3]: 0
Headache pain-free [3]: 0 n (%)
Headache pain-relief [3]: 0 n (%)
Most bothersome symptom free [3]: 0 n (%)
Nausea-free [3]: 0 n (%)
Neck/shoulder pain-free [3]: 0 n (%)
Phonophobia-free [3]: 0 n (%)
Photophobia-free [3]: 0 n (%)
Additional meds taken (7 min, all doses combined): 0 (0)
Headache pain-free (7 min, all doses combined): 0 (0) n (%)
Headache pain-relief (7 min, all doses combined): 0 (0) n (%)
Most bothersome symptom free (7 min, all doses combined): 0 (0) n (%)
Nausea-free (7 min, all doses combined): 2 (33) n (%)
Neck/shoulder pain-free (7 min, all doses combined): 2 (33) n (%)
Phonophobia-free (7 min, all doses combined): 2 (33) n (%)
Photophobia-free (7 min, all doses combined): 1 (16) n (%)
Headache pain-free [4]: 0%
Most bothersome symptom-free [4]: 0%
Additional meds taken [5]: 0 (0)
Headache pain-free [5]: 0 (0) n (%)
Headache pain-relief [5]: 4 (44) n (%)
Most bothersome symptom free [5]: 1 (11) n (%)
Nausea-free [5]: 3 (33) n (%)
Neck/shoulder pain-free [5]: 4 (44) n (%)
Phonophobia-free [5]: 4 (44) n (%)
Photophobia-free [5]: 3 (33) n (%)
Additional meds taken [6]: 0
Headache pain-free [6]: 0 n (%)
Headache pain-relief [6]: 2 n (%)
Most bothersome symptom free [6]: 0 n (%)
Nausea-free [6]: 3 n (%)
Neck/shoulder pain-free [6]: 0 n (%)
Phonophobia-free [6]: 0 n (%)
Photophobia-free [6]: 1 n (%)
Additional meds taken [7]: 1
Headache pain-free [7]: 0 n (%)
Headache pain-relief [7]: 0 n (%)
Most bothersome symptom free [7]: 0 n (%)
Nausea-free [7]: 0 n (%)
Neck/shoulder pain-free [7]: 0 n (%)
Phonophobia-free [7]: 0 n (%)
Photophobia-free [7]: 0 n (%)
Additional meds taken [8]: 0
Headache pain-free [8]: 0 n (%)
Headache pain-relief [8]: 1 n (%)
Most bothersome symptom free [8]: 0 n (%)
Nausea-free [8]: 2 n (%)
Neck/shoulder pain-free [8]: 1 n (%)
Phonophobia-free [8]: 0 n (%)
Photophobia-free [8]: 0 n (%)
Additional meds taken (15 min, all doses combined): 0 (0)
Headache pain-free (15 min, all doses combined): 0 (0) n (%)
Headache pain-relief (15 min, all doses combined): 7 (44) n (%)
Most bothersome symptom free (15 min, all doses combined): 1 (6) n (%)
Nausea-free (15 min, all doses combined): 8 (50) n (%)
Neck/shoulder pain-free (15 min, all doses combined): 5 (31) n (%)
Phonophobia-free (15 min, all doses combined): 4 (25) n (%)
Photophobia-free (15 min, all doses combined): 4 (25) n (%)
Headache pain-free [9]: 0%
Headache pain-relief [9]: 44%
Most bothersome symptom-free [9]: 11%
Additional meds taken [10]: 0
Headache pain-free [10]: 2 (22) n (%)
Headache pain-relief [10]: 7 (78) n (%)
Most bothersome symptom free [10]: 6 (67) n (%)
Nausea-free [10]: 8 (88) n (%)
Neck/shoulder pain-free [10]: 6 (67) n (%)
Phonophobia-free [10]: 7 (78) n (%)
Photophobia-free [10]: 5 (56) n (%)
Additional meds taken [11]: 0 (0)
Headache pain-free [11]: 0 (0) n (%)
Headache pain-relief [11]: 2 (66) n (%)
Most bothersome symptom free [11]: 0 (0) n (%)
Nausea-free [11]: 2 (66) n (%)
Neck/shoulder pain-free [11]: 0 (0) n (%)
Phonophobia-free [11]: 0 (0) n (%)
Photophobia-free [11]: 1 (33) n (%)
Additional meds taken [12]: 0 (0)
Headache pain-free [12]: 0 (0) n (%)
Headache pain-relief [12]: 0 (0) n (%)
Most bothersome symptom free [12]: 0 (0) n (%)
Nausea-free [12]: 0 (0) n (%)
Neck/shoulder pain-free [12]: 1 (100) n (%)
Phonophobia-free [12]: 1 (100) n (%)
Photophobia-free [12]: 1 (100) n (%)
Additional meds taken [13]: 0 (0)
Headache pain-free [13]: 0 (0) n (%)
Headache pain-relief [13]: 2 (66) n (%)
Most bothersome symptom free [13]: 0 (0) n (%)
Nausea-free [13]: 2 (66) n (%)
Neck/shoulder pain-free [13]: 1 (33) n (%)
Phonophobia-free [13]: 0 (0) n (%)
Photophobia-free [13]: 0 (0) n (%)
Additional meds taken (30 min, all doses combined): 0 (0)
Headache pain-free (30 min, all doses combined): 2 (13) n (%)
Headache pain-relief (30 min, all doses combined): 10 (63) n (%)
Most bothersome symptom free (30 min, all doses combined): 6 (38) n (%)
Nausea-free (30 min, all doses combined): 12 (75) n (%)
Neck/shoulder pain-free (30 min, all doses combined): 8 (50) n (%)
Phonophobia-free (30 min, all doses combined): 8 (50) n (%)
Photophobia-free (30 min, all doses combined): 7 (48) n (%)
Headache pain-free (30 min, naltrexone 1.5 mg (N=3)): 0%
Headache pain-free [14]: 22%
Headache pain-relief [14]: 78%
Most bothersome symptom-free [14]: 67%
Headache pain-free (30 min, naltrexone/acetaminophen 3.25 mg/325 mg (N=3), naltrexone 3.25 mg (N=3)): 0%
Additional meds taken [15]: 0 (0)
Headache pain-free [15]: 4 (44) n (%)
Headache pain-relief [15]: 8 (88) n (%)
Most bothersome symptom free [15]: 7 (77) n (%)
Nausea-free [15]: 9 (100) n (%)
Neck/shoulder pain-free [15]: 6 (66) n (%)
Phonophobia-free [15]: 8 (88) n (%)
Photophobia-free [15]: 6 (66) n (%)
Additional meds taken [16]: 0
Headache pain-free [16]: 3 (100) n (%)
